Reference: ChEMBL document CHEMBL3885881, “DrugMatrix”

Organism: Rattus norvegicus
Assay: DrugMatrix - Regimen: Daily Repeat
Format: toxicity, organism-based, Sprague-Dawley
Parameters: regimen Daily Repeat, gender Male, age 6-8 weeks
Conditions: in vivo, sc, route subcutaneous, […]; for ABSOLUTE BASOPHIL / BASOPHIL / ABSOLUTE EOSINOPHIL / ABSOLUTE LYMPHOCYTE / ABSOLUTE MONOCYTE / ABSOLUTE SEGMENTED NEUTROPHIL / EOSINOPHIL / ERYTHROCYTE COUNT / HEMATOCRIT / HEMOGLOBIN / LEUKOCYTE COUNT / LYMPHOCYTE / MEAN CORPUSCULAR HEMOGLOBIN / MEAN CORPUSCULAR HEMOGLOBIN CONCENTRATION / MEAN CORPUSCULAR VOLUME / MONOCYTE / NEUTROPHIL / NUCLEATED RED BLOOD CELLS / PLATELET COUNT: tissue Blood
[1] = 0 mg/kg, 72 h, dose level Control, time 3 day
[2] = 0 mg/kg, 120 h, dose level Control, time 5 day
[3] = 0.1 mg/kg, 72 h, dose level Low, time 3 day
[4] = 0.1 mg/kg, 72 h, tissue Plasma, dose level Low, time 3 day
[5] = 0.1 mg/kg, 120 h, dose level Low, time 5 day
[6] = 0.1 mg/kg, 120 h, tissue Plasma, dose level Low, time 5 day

With `C[C@]12CC[C@@H]3c4ccc(OC(=O)c5ccccc5)cc4CC[C@H]3[C@@H]1CC[C@@H]2O` [ESTRADIOL BENZOATE] as the molecule, how does the “ABSOLUTE BASOPHIL” value [1] read?
The value was 0 CELLS/uL.

What about the BASOPHIL [1] of the same molecule?
The BASOPHIL was 0%.

And the “ABSOLUTE BASOPHIL” value [2]?
The value was 0 CELLS/uL.

And the BASOPHIL [2]?
The BASOPHIL was 0%.

And the CREATININE (0 mg/kg, 120 h, tissue Plasma, dose level Control, time 5 day)?
Its CREATININE is 0.17 mg/dL.

What about the “ABSOLUTE BASOPHIL” value [3] of the same molecule?
The value was 0 CELLS/uL.

What about the “ABSOLUTE EOSINOPHIL” value [3] of the same molecule?
The value was 27.33 CELLS/uL.

What about the “ABSOLUTE LYMPHOCYTE” value [3] of the same molecule?
Its value is 9086.67 CELLS/uL.

And the “ABSOLUTE MONOCYTE” value [3]?
Its value is 78.67 CELLS/uL.

What about the “ABSOLUTE SEGMENTED NEUTROPHIL” value [3] of the same molecule?
The value was 1407.33 CELLS/uL.

What about the BASOPHIL [3] of the same molecule?
Its BASOPHIL is 0%.

And the EOSINOPHIL [3]?
Its EOSINOPHIL is 0.33%.

What about the “ERYTHROCYTE COUNT” value [3] of the same molecule?
The value was 6.05 x10E6/uL.

What about the HEMATOCRIT [3] of the same molecule?
Its HEMATOCRIT is 38.9%.

What about the HEMOGLOBIN [3] of the same molecule?
The HEMOGLOBIN was 13.37 G/DL.

What about the “LEUKOCYTE COUNT” value [3] of the same molecule?
The value was 10.6 x10E3/uL.

And the LYMPHOCYTE [3]?
Its LYMPHOCYTE is 85.67%.

And the “MEAN CORPUSCULAR HEMOGLOBIN” value [3]?
Its value is 22.27 pg.

And the “MEAN CORPUSCULAR HEMOGLOBIN CONCENTRATION” value [3]?
The value was 34.73 G/DL.

What about the “MEAN CORPUSCULAR VOLUME” value [3] of the same molecule?
Its value is 64.23 fL.

What about the MONOCYTE [3] of the same molecule?
The MONOCYTE was 0.67%.

And the NEUTROPHIL [3]?
The NEUTROPHIL was 13.33%.

And the “NUCLEATED RED BLOOD CELLS” value [3]?
Its value is 0 /100WBC.

What about the “PLATELET COUNT” value [3] of the same molecule?
The value was 1490.33 x10E3/uL.

And the “ALANINE AMINOTRANSFERASE” value [4]?
Its value is 35.67 u/L.

And the ALBUMIN [4]?
The ALBUMIN was 4.43 G/DL.

And the “ALKALINE PHOSPHATASE” value [4]?
Its value is 250.67 u/L.

And the “ASPARTATE AMINOTRANSFERASE” value [4]?
The value was 76 u/L.

What about the “BLOOD UREA NITROGEN” value [4] of the same molecule?
The value was 10 mg/dL.

What about the “CARBON DIOXIDE” value [4] of the same molecule?
The value was 23.67 mmol/L.

And the CHLORIDE [4]?
The CHLORIDE was 100.33 MEQ/L.

And the CHOLESTEROL [4]?
Its CHOLESTEROL is 76.67 mg/dL.

What about the “CREATINE PHOSPHOKINASE” value [4] of the same molecule?
The value was 460 u/L.

What about the CREATININE [4] of the same molecule?
The CREATININE was 0.17 mg/dL.

And the GLUCOSE [4]?
Its GLUCOSE is 191.67 mg/dL.

And the “LACTATE DEHYDROGENASE” value [4]?
The value was 269.67 u/L.

What about the LIPASE [4] of the same molecule?
The LIPASE was 9 u/L.

What about the PHOSPHORUS [4] of the same molecule?
The PHOSPHORUS was 12.77 mg/dL.

And the POTASSIUM [4]?
The POTASSIUM was 6.18 MEQ/L.

And the SODIUM [4]?
The SODIUM was 140.73 MEQ/L.

What about the “TOTAL BILIRUBIN” value [4] of the same molecule?
The value was 0.1 mg/dL.

And the “TOTAL PROTEIN” value [4]?
The value was 5.77 G/DL.

What about the “URIC ACID” value [4] of the same molecule?
Its value is 3.8 mg/dL.

What about the “ABSOLUTE BASOPHIL” value [5] of the same molecule?
Its value is 0 CELLS/uL.

And the “ABSOLUTE EOSINOPHIL” value [5]?
Its value is 79 CELLS/uL.

What about the “ABSOLUTE LYMPHOCYTE” value [5] of the same molecule?
The value was 6274.33 CELLS/uL.

What about the “ABSOLUTE MONOCYTE” value [5] of the same molecule?
The value was 295 CELLS/uL.

What about the “ABSOLUTE SEGMENTED NEUTROPHIL” value [5] of the same molecule?
The value was 551.67 CELLS/uL.

And the BASOPHIL [5]?
Its BASOPHIL is 0%.

What about the EOSINOPHIL [5] of the same molecule?
The EOSINOPHIL was 1%.

What about the “ERYTHROCYTE COUNT” value [5] of the same molecule?
The value was 5.91 x10E6/uL.

And the HEMATOCRIT [5]?
Its HEMATOCRIT is 35.77%.

What about the HEMOGLOBIN [5] of the same molecule?
Its HEMOGLOBIN is 13.47 G/DL.

What about the “LEUKOCYTE COUNT” value [5] of the same molecule?
Its value is 7.2 x10E3/uL.

And the LYMPHOCYTE [5]?
The LYMPHOCYTE was 86.67%.

What about the “MEAN CORPUSCULAR HEMOGLOBIN” value [5] of the same molecule?
The value was 22.8 pg.

And the “MEAN CORPUSCULAR HEMOGLOBIN CONCENTRATION” value [5]?
The value was 37.67 G/DL.

What about the “MEAN CORPUSCULAR VOLUME” value [5] of the same molecule?
The value was 60.53 fL.

And the MONOCYTE [5]?
The MONOCYTE was 4%.

And the NEUTROPHIL [5]?
The NEUTROPHIL was 8.33%.

And the “NUCLEATED RED BLOOD CELLS” value [5]?
Its value is 0 /100WBC.

What about the “PLATELET COUNT” value [5] of the same molecule?
Its value is 1231.67 x10E3/uL.

What about the “ALANINE AMINOTRANSFERASE” value [6] of the same molecule?
Its value is 39.67 u/L.

What about the ALBUMIN [6] of the same molecule?
Its ALBUMIN is 5.37 G/DL.

And the “ALKALINE PHOSPHATASE” value [6]?
Its value is 187.33 u/L.

What about the “ASPARTATE AMINOTRANSFERASE” value [6] of the same molecule?
The value was 63 u/L.

What about the “BLOOD UREA NITROGEN” value [6] of the same molecule?
The value was 13.67 mg/dL.

And the “CARBON DIOXIDE” value [6]?
Its value is 29 mmol/L.

What about the CHLORIDE [6] of the same molecule?
Its CHLORIDE is 98.33 MEQ/L.

What about the CHOLESTEROL [6] of the same molecule?
The CHOLESTEROL was 96.33 mg/dL.

What about the “CREATINE PHOSPHOKINASE” value [6] of the same molecule?
Its value is 578 u/L.

And the CREATININE [6]?
Its CREATININE is 0.18 mg/dL.

And the GLUCOSE [6]?
Its GLUCOSE is 128.33 mg/dL.

And the “LACTATE DEHYDROGENASE” value [6]?
Its value is 137 u/L.

What about the LIPASE [6] of the same molecule?
Its LIPASE is 10.67 u/L.

And the PHOSPHORUS [6]?
Its PHOSPHORUS is 11.5 mg/dL.
